These results are taken from PubChem BioAssay (NCI).

Among the test systems are ACHN renal; COLO 205 colon; HCT-116 colon; HT29 colon; MDA-MB-435; MOLT-4 leukemia; NCI/ADR-RES ovarian; RPMI-8226 leukemia; T-47D breast; U251 CNS; UO-31 renal; HS 578T breast; IGROV1 ovarian; SF-539 CNS; SW-620 colon; NCI-H226 lung.
Common to all, as to assay: DTP human tumour cell line panel, 48 h

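Assay format: 96-well plates, 48-hour exposure. TGI denotes the concentration required for complete inhibition of growth.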 *1 amine or outer side, *2 acyl side, *3 side chain or, on linkers, in order; H or OH if unused. Where a SMILES comes first, the peptide text is derived from it. [ ]: non-standard residue; d: D form. X33 = C=CCC(O[*:1])C(=O)[*:2]; NMeV = CN[CH](C(=O)O)C(C)C; NMeA = CN[CH](C)C(=O)O; βAla = NCCC(=O)O Some results are limits rather than exact numbers.

In general, TGI refers to the concentration at which net growth stops. Low readings indicate greater sensitivity of the cells, high ones lower sensitivity of the cells. With `COC(=O)C1=C(CCCCO[Si](C)(C)C(C)(C)C)NC(=O)N2[C@@H](CCOCc3ccccc3)CC[C@H]12`, the TGI is > 100 µM with ACHN renal; 32.4 µM in the test with COLO 205 colon; 24.6 µM in the test on HCT-116 colon; 35.1 µM with HT29 colon; > 100 µM in the test on MDA-MB-435; > 100 µM with MOLT-4 leukemia. The concentration for total growth inhibition (TGI) in the test on NCI/ADR-RES ovarian was 42.4 µM; in the test with RPMI-8226 leukemia, > 100 µM; with T-47D breast, > 100 µM; in the test with U251 CNS, 28.2 µM; in the test on UO-31 renal it was 56.2 µM.

For the compound `O=C1/C(=C/c2c(Cl)[nH]c3ccccc23)c2ccccc2N1c1ccccc1`, the TGI came out at 57.2 µM in the test with ACHN renal; 5.34 µM in the test on COLO 205 colon; 15.6 µM in the test with HCT-116 colon; 30.2 µM in the test with HS 578T breast; 18.9 µM in the test on HT29 colon; 39.1 µM in the test on IGROV1 ovarian. Besides, the TGI with MDA-MB-435 turned out to be 4.12 µM; in the test with MOLT-4 leukemia it was 31.8 µM; in the test with NCI/ADR-RES ovarian, 6.55 µM; with RPMI-8226 leukemia, 22.3 µM; with SF-539 CNS it was 7.44 µM; with SW-620 colon, 41.7 µM. Further, the total growth inhibition concentration (TGI) in the test on T-47D breast worked out at 16 µM; in the test on U251 CNS it was 22.9 µM; in the test on UO-31 renal, 37.1 µM.

As to `c1ccc2cc(CNCCOCCOCCNCc3ccc4ccccc4c3)ccc2c1`, the TGI in the test on ACHN renal is 3.26 µM; in the test with COLO 205 colon, 3.01 µM; in the test with HCT-116 colon it was 3.08 µM; in the test on HS 578T breast it was 3.74 µM; in the test on HT29 colon, 2.76 µM; with IGROV1 ovarian, 3.22 µM. The TGI in the test on MDA-MB-435 is 3.81 µM; in the test with MOLT-4 leukemia, 4.49 µM; with NCI-H226 lung it was 9.9 µM; in the test on RPMI-8226 leukemia it was 4.31 µM; in the test with SF-539 CNS, 3.69 µM; with SW-620 colon, 4.62 µM. Further, the values for the TGI with T-47D breast and in the test on U251 CNS were 4.95 µM and 4.07 µM, respectively.

For the compound `N#Cc1[nH]c(=O)n(-c2cccc3ccccc23)c1N`, the TGI in the test with ACHN renal, in the test with COLO 205 colon, in the test with HCT-116 colon, with HS 578T breast, in the test with HT29 colon and in the test with IGROV1 ovarian was > 10 µM each time. Also, the TGI in the test with MDA-MB-435, in the test on MOLT-4 leukemia, with NCI/ADR-RES ovarian, in the test with RPMI-8226 leukemia, with SF-539 CNS and in the test on SW-620 colon was > 10 µM in each case. The TGI in the test with T-47D breast and in the test on U251 CNS was > 10 µM throughout.

As to `O=c1oc2c(ccc3ccccc32)cc1C1=CSC2=NCCN12`, the TGI with ACHN renal, in the test on COLO 205 colon, in the test with HCT-116 colon, in the test on HS 578T breast, in the test with HT29 colon and in the test with IGROV1 ovarian was > 100 µM throughout. The TGI with MDA-MB-435, with MOLT-4 leukemia, with NCI/ADR-RES ovarian, with RPMI-8226 leukemia, in the test with SF-539 CNS and in the test on SW-620 colon was > 100 µM each time. Moreover, the TGI with T-47D breast, in the test with U251 CNS and in the test on UO-31 renal was > 100 µM throughout.

With `COc1ccc(C2(O)c3ccccc3C(=O)N(C)C2(O)c2ccc(OC)cc2)cc1` (stereo unspecified), the TGI with COLO 205 colon was 60.1 µM; in the test with HCT-116 colon, > 100 µM; in the test with HS 578T breast, 29 µM; in the test on HT29 colon it was > 100 µM; in the test on IGROV1 ovarian it was > 100 µM; in the test with MDA-MB-435 it was 42.2 µM. Moreover, the TGI in the test with MOLT-4 leukemia, in the test on NCI/ADR-RES ovarian, with RPMI-8226 leukemia, with SF-539 CNS, with SW-620 colon and in the test with T-47D breast was > 100 µM in each case. Moreover, the TGI in the test with U251 CNS and in the test with UO-31 renal was > 100 µM in each case.

In the case of `C=CCCCC1CCCNC1=S` (stereo unspecified), the TGI in the test with ACHN renal, in the test on HCT-116 colon, in the test on HS 578T breast, in the test with HT29 colon, in the test with IGROV1 ovarian and with MDA-MB-435 was > 100 µM in each case. In addition, the TGI in the test on MOLT-4 leukemia, in the test with NCI-H226 lung, with RPMI-8226 leukemia, in the test on SF-539 CNS, with SW-620 colon and in the test with T-47D breast was > 100 µM throughout. Besides, the TGI in the test with U251 CNS and in the test with UO-31 renal was > 100 µM each time.

Consider `Cc1ccc(S(=O)(=O)NNC2(NS(=O)(=O)c3ccc(Cl)cc3)C(Cl)=C(Cl)C(=O)c3ccccc32)cc1` (stereo unspecified), for which the TGI was found to be 29.7 µM in the test with ACHN renal; 34.9 µM in the test with COLO 205 colon; 32.4 µM with HCT-116 colon; 54.8 µM in the test on HS 578T breast; 35.1 µM in the test on HT29 colon; 34.3 µM in the test on IGROV1 ovarian. Moreover, the TGI in the test with MDA-MB-435 is 36 µM; in the test on MOLT-4 leukemia, > 100 µM; in the test on NCI/ADR-RES ovarian, 89.8 µM; in the test with RPMI-8226 leukemia it was 67 µM; in the test with SF-539 CNS it was 48.8 µM; in the test on SW-620 colon, 76 µM. In addition, the TGI with T-47D breast is > 100 µM; in the test on U251 CNS, 57.3 µM; with UO-31 renal it was 42.5 µM.

`COC(=O)C1CCC(=O)N1C(c1ccccc1)c1cc(OC)c(OC)c(OC)c1` (stereo unspecified): the TGI in the test with ACHN renal is > 100 µM; with COLO 205 colon, > 100 µM; in the test with HCT-116 colon it was > 100 µM; in the test on HT29 colon, > 100 µM; in the test with IGROV1 ovarian, > 100 µM; in the test with MDA-MB-435, 59.7 µM. Moreover, the TGI is 89.3 µM in the test on MOLT-4 leukemia; > 100 µM with NCI-H226 lung; > 100 µM in the test on NCI/ADR-RES ovarian; > 100 µM with SF-539 CNS; > 100 µM in the test with SW-620 colon; > 100 µM with T-47D breast. For the same compound, the TGI with U251 CNS and in the test with UO-31 renal was > 100 µM each time.

Regarding `C=CCC1OC(=O)CCNC(=O)C(C)N(C)C(=O)C(C(C)C)N(C)C(=O)C(C(C)CC)NC(=O)C2CCCN2C1=O` (stereo unspecified) (cyclo([X33]PI[NMeV][NMeA][βAla]); configuration not given here), the concentration for total growth inhibition (TGI) in the test with ACHN renal, with COLO 205 colon, in the test on HCT-116 colon, in the test with HS 578T breast, in the test on HT29 colon and in the test with IGROV1 ovarian was > 100 µM in each case. Besides, the TGI is > 100 µM with MDA-MB-435; > 100 µM in the test on MOLT-4 leukemia; > 100 µM in the test with NCI/ADR-RES ovarian; 7.84 µM in the test on RPMI-8226 leukemia; > 100 µM in the test with SF-539 CNS; > 100 µM in the test on SW-620 colon. Besides, the TGI with T-47D breast was > 100 µM; in the test on U251 CNS, > 100 µM; in the test with UO-31 renal, 47.5 µM.
